According to ChEMBL document CHEMBL1201862, “PubChem BioAssay data set” (2004):
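Values below derive from 48-hour exposures of cells grown in 96-well plates, with endpoints linearly interpolated between the two concentrations bracketing the appropriate inhibition level. GI50 = concentration required for 50% inhibition of growth.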 Active and inactive are the calls of the source. Cut-off read from the data, not from the text of the source: active = GI50 up to about 1.1 µM and inactive = higher.

How the values were obtained:
Assay in all cases: NCI anticancer screen, dose series, 48 h
RXF 393 = test system: RXF 393
MOLT-4 = test system: MOLT-4
A498 = test system: A498
SK-OV-3 = test system: SK-OV-3
SK-MEL-28 = test system: SK-MEL-28
UACC-257 = test system: UACC-257
TK-10 = test system: TK-10
SK-MEL-5 = test system: SK-MEL-5
IGROV-1 = test system: IGROV-1
UACC-62 = test system: UACC-62
T47D = test system: T47D
HOP-92 = test system: HOP-92
ACHN = test system: ACHN
SF-539 = test system: SF-539
KM12 = test system: KM12
NCI-H226 = test system: NCI-H226
OVCAR-4 = test system: OVCAR-4
NCI-H522 = test system: NCI-H522
OVCAR-5 = test system: OVCAR-5
Malme-3M = test system: Malme-3M

| Structure (SMILES) | GI50 (RXF 393) | GI50 (MOLT-4) | GI50 (A498) | GI50 (SK-OV-3) | GI50 (SK-MEL-28) | GI50 (UACC-257) | GI50 (TK-10) | GI50 (SK-MEL-5) | GI50 (IGROV-1) | GI50 (UACC-62) | GI50 (T47D) | GI50 (HOP-92) | GI50 (ACHN) | GI50 (SF-539) | GI50 (KM12) | GI50 (NCI-H226) | GI50 (OVCAR-4) | GI50 (NCI-H522) | GI50 (OVCAR-5) | GI50 (Malme-3M) |
| --- | --- | --- | --- | --- | --- | --- | --- | --- | --- | --- | --- | --- | --- | --- | --- | --- | --- | --- | --- | --- |
| O=C(O)c1ccc2nc(-c3ccccn3)c(-c3ccccn3)nc2c1 | > 100 µM (inactive) | > 100 µM (inactive) | > 100 µM (inactive) | > 100 µM (inactive) | > 100 µM (inactive) | > 100 µM (inactive) | > 100 µM (inactive) | > 100 µM (inactive) | > 100 µM (inactive) | > 100 µM (inactive) | > 100 µM (inactive) | > 100 µM (inactive) | > 100 µM (inactive) | > 100 µM (inactive) | > 100 µM (inactive) | > 100 µM (inactive) | > 100 µM (inactive) |  |  |  |
| O=C(NCCCCNCCCNC(=O)c1ccccc1)c1ccccc1 | > 100 µM (inactive) | > 100 µM (inactive) | > 100 µM (inactive) | > 100 µM (inactive) | > 100 µM (inactive) | > 100 µM (inactive) | > 100 µM (inactive) | > 100 µM (inactive) | > 100 µM (inactive) | > 100 µM (inactive) | > 100 µM (inactive) | > 100 µM (inactive) | > 100 µM (inactive) | > 100 µM (inactive) | > 100 µM (inactive) | > 100 µM (inactive) | > 100 µM (inactive) | > 100 µM (inactive) | > 100 µM (inactive) |  |
| Cc1ccsc1/C=N/Nc1cc(C)c2ccccc2n1 | 20.7 µM (inactive) | 9.23 µM (inactive) | 10.4 µM (inactive) | 17.3 µM (inactive) | 14.6 µM (inactive) | 6.78 µM (inactive) | 14.7 µM (inactive) | 2.17 µM (inactive) | 1.36 µM (inactive) | 12.5 µM (inactive) | 17.8 µM (inactive) | 13.7 µM (inactive) | 12.9 µM (inactive) |  | 15.6 µM (inactive) | 16 µM (inactive) | 14.6 µM (inactive) |  | 24.3 µM (inactive) |  |
| Nc1nnc2n1C(=O)C(C1(C3=Nc4nnc(N)n4C3=O)Cc3ccccc3C1=O)=N2 | > 100 µM (inactive) | > 100 µM (inactive) | 0.0205 µM (active) | > 100 µM (inactive) | > 100 µM (inactive) | > 100 µM (inactive) | > 100 µM (inactive) | > 100 µM (inactive) |  | > 100 µM (inactive) | 64.9 µM (inactive) | > 100 µM (inactive) | > 100 µM (inactive) | > 100 µM (inactive) | > 100 µM (inactive) | > 100 µM (inactive) |  |  | > 100 µM (inactive) | > 100 µM (inactive) |
| COc1cc(O)c2c(=O)c3cccc(C)c3[nH]c2c1 | > 10 µM (inactive) | 3.99 µM (inactive) | 9.33 µM (inactive) | > 10 µM (inactive) | > 10 µM (inactive) | > 10 µM (inactive) | > 10 µM (inactive) | > 10 µM (inactive) | > 10 µM (inactive) | > 10 µM (inactive) | > 10 µM (inactive) |  | 7.41 µM (inactive) | > 10 µM (inactive) | 5.93 µM (inactive) | > 10 µM (inactive) | 6.4 µM (inactive) | > 10 µM (inactive) | > 10 µM (inactive) | > 10 µM (inactive) |
| CCOC(=O)/C(C(=O)c1ccc[nH]1)=C1/CCCN1C | > 100 µM (inactive) | 49.5 µM (inactive) | > 100 µM (inactive) | > 100 µM (inactive) | > 100 µM (inactive) | > 100 µM (inactive) | > 100 µM (inactive) | > 100 µM (inactive) | > 100 µM (inactive) | > 100 µM (inactive) | > 100 µM (inactive) |  | > 100 µM (inactive) | > 100 µM (inactive) | > 100 µM (inactive) | > 100 µM (inactive) | > 100 µM (inactive) |  | > 100 µM (inactive) | > 100 µM (inactive) |
| CCN(C(=O)/C=C/c1ccco1)c1ccccc1 | > 100 µM (inactive) | 53.8 µM (inactive) | > 100 µM (inactive) | > 100 µM (inactive) | > 100 µM (inactive) | > 100 µM (inactive) | > 100 µM (inactive) | > 100 µM (inactive) | > 100 µM (inactive) | > 100 µM (inactive) | > 100 µM (inactive) | > 100 µM (inactive) | > 100 µM (inactive) |  | > 100 µM (inactive) | > 100 µM (inactive) | > 100 µM (inactive) | > 100 µM (inactive) | > 100 µM (inactive) |  |
| O=c1[nH]c2cc(F)c(F)cc2nc1Cc1ccccc1 | > 100 µM (inactive) | 16.1 µM (inactive) | > 100 µM (inactive) | > 100 µM (inactive) | > 100 µM (inactive) | > 100 µM (inactive) | > 100 µM (inactive) | > 100 µM (inactive) | > 100 µM (inactive) | > 100 µM (inactive) | > 100 µM (inactive) | > 100 µM (inactive) | > 100 µM (inactive) | > 100 µM (inactive) | > 100 µM (inactive) | > 100 µM (inactive) | > 100 µM (inactive) |  |  |  |
| COc1ccc(C2c3cc4c(cc3OC(N3CCOCC3)C2C)OCO4)cc1 (configuration not stated) | 19.1 µM (inactive) | 12 µM (inactive) | 6.03 µM (inactive) |  | 28.6 µM (inactive) | 21.9 µM (inactive) | 29.1 µM (inactive) | 22.6 µM (inactive) | 30.3 µM (inactive) | 27.6 µM (inactive) | 7.96 µM (inactive) | 4.14 µM (inactive) | 21.4 µM (inactive) | 21.4 µM (inactive) | 23.4 µM (inactive) |  | 37.8 µM (inactive) | 30 µM (inactive) | 34.8 µM (inactive) | 7.38 µM (inactive) |
| O=S1(=O)C(c2ccccc2)=C(O)c2ccccc21 | 35.8 µM (inactive) | > 100 µM (inactive) | > 100 µM (inactive) |  | > 100 µM (inactive) | > 100 µM (inactive) | > 100 µM (inactive) | > 100 µM (inactive) | > 100 µM (inactive) | > 100 µM (inactive) | > 100 µM (inactive) | > 100 µM (inactive) | > 100 µM (inactive) | > 100 µM (inactive) | > 100 µM (inactive) | > 100 µM (inactive) | > 100 µM (inactive) | > 100 µM (inactive) | > 100 µM (inactive) | > 100 µM (inactive) |
| COc1ccc(Cn2nc(OCc3ccccn3)c3cc([N+](=O)[O-])ccc32)cc1 | > 100 µM (inactive) | > 100 µM (inactive) | > 100 µM (inactive) | 63.7 µM (inactive) | > 100 µM (inactive) | > 100 µM (inactive) | > 100 µM (inactive) | > 100 µM (inactive) | > 100 µM (inactive) | 35.7 µM (inactive) | > 100 µM (inactive) |  | > 100 µM (inactive) | 33.3 µM (inactive) | > 100 µM (inactive) | > 100 µM (inactive) |  | > 100 µM (inactive) | > 100 µM (inactive) | > 100 µM (inactive) |
